Source: US20250326771A1, “PIPERAZINE DERIVATIVES USEFUL IN HIV THERAPY” (VIIV HEALTHCARE COMPANY, priority 2022, published 2025)
pIC50: −log10 of the molar value.

How the values were obtained:
[1] = target: cIAP2-BIR3 (Homo sapiens (Human), UniProt Q13489); assay: BIR binding assay (FRET competition), cIAP2 BIR3; details: for cIAP2 BIR3 vs BIR2 separation window: fold separation (FS) for cIAP2
[2] = tested on: Jurkat HIV-luciferase clones; assay: Jurkat latency reversal assay; assay type: cell-based; details: Homo sapiens, 48 h; Jurkat latency reversal assay potency; read-out: Jurkat pEC50 (converted)
Summary of the method: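 EC50 and maximal activation versus vehicle were derived by four-parameter logistic regression of luciferase luminescence. The luminescence was induced in pooled Jurkat HIV-luciferase clones C16, 115 and N6 (5,000 cells/well) after 48 h at 37° C with duplicate 14-point, 3-fold dilutions starting at 10 μM (0.5% DMSO).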

[3] = target: cIAP1-BIR2 (Homo sapiens (Human), UniProt Q13490); assay: BIR binding assay (FRET competition), cIAP1 BIR2
Summary of the method: (§1)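 His-tagged domains (50 nM cIAP1-BIR3, 325 nM cIAP2-BIR2, 325 nM cIAP1-BIR2, 100 nM XIAP-BIR3) compete with compounds for a 200 nM AlexaFluor647-labelled SMAC/DIABLO peptide in HEPES buffer, pH 7.4, for 60 min. Then 2 nM Eu-W1024 is added for 30 min. The 615/665 nm ratio is fit by four-parameter fit to give IC50.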

[4] = target: cIAP2-BIR2 (Homo sapiens (Human), UniProt Q13489); assay: BIR binding assay (FRET competition), cIAP2 BIR2
Summary of the method: as §1

[5] = target: XIAP-BIR3 (Homo sapiens (Human), UniProt P98170); assay: BIR binding assay (FRET competition), XIAP BIR3
Summary of the method: as §1

[6] = target: cIAP1-BIR3 (Homo sapiens (Human), UniProt Q13490); assay: BIR binding assay (FRET competition), cIAP1 BIR3; details: for cIAP1 BIR3 vs BIR2 separation window: fold separation (FS) for cIAP1
Summary of the method: as §1

Chain of cIAP2-BIR3 (Q13489 238-349): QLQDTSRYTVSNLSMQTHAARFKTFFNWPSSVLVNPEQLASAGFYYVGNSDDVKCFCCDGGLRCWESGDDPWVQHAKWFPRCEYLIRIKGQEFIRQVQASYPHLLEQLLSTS
Chain of cIAP1-BIR2 (Q13490 173-257): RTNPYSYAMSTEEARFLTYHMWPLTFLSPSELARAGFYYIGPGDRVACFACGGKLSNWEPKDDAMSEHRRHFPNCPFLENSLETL
Chain of XIAP-BIR3 (P98170 241-356): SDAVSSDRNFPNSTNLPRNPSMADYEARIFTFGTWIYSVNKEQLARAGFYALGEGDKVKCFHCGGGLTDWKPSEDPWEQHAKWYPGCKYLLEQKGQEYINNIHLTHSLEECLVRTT
Chain of cIAP2-BIR2 (Q13489 158-242): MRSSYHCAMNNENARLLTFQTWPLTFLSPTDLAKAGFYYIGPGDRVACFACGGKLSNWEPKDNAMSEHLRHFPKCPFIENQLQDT
Chain of cIAP1-BIR3 (Q13490 253-363): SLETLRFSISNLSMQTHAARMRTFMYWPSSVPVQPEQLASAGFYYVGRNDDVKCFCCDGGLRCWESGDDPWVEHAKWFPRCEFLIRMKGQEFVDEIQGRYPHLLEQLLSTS

## C[C@@H]1CN(CC(=O)N2CC(C)(C)c3[nH]c(=O)c(Cc4ccc(Cl)cc4C(F)(F)F)cc32)[C@@H](CN2CCO[C@H](C(=O)NCc3ccc(CNC(=O)[C@@H]4CN(C[C@H]5CN[C@H](C)CN5CC(=O)N5CC(C)(C)c6[nH]c(=O)c(Cc7ccc(Cl)cc7C(F)(F)F)cc65)CCO4)cc3)C2)CN1 [Compound 170, (2S,2′S)-N,N′-(1,4-phenylenebis(methylene)) bis(4-(((2R,5R)-1-(2-(6-(4-chloro-2-(trifluoromethyl)benzyl)-3,3-dimethyl-5-oxo-2,3,4,5-tetrahydro-1H-pyrrolo[3,2-b]pyridin-1-yl)-2-oxoethyl)-5-methylpiperazin-2-yl)methyl)morpholine-2-carboxamide)]
[1]
  pIC50: 8.10 to 8.86
  cIAP2 BIR3 vs BIR2 separation window: +++ (10,000>FS>1,000)
[2]
  EC50: 12.6 to 63.1 nM
[3]
  pIC50: 5.00 to 5.50
[4]
  pIC50: 5.50 to 6.00
[5]
  pIC50: 7.50 to 7.80
[6]
  pIC50: 8.10 to 8.86
  cIAP1 BIR3 vs BIR2 separation window: +++ (10,000>FS>1,000)

## C[C@@H]1CN(CC(=O)N2CC(C)(C)c3[nH]c(=O)c(Cc4ccc(F)cc4)cc32)[C@@H](CN2CCO[C@H](COCCCCCCOC[C@@H]3CN(C[C@H]4CN[C@H](C)CN4CC(=O)N4CC(C)(C)c5[nH]c(=O)c(Cc6ccc(F)cc6)cc54)CCO3)C2)CN1 [Example 64, 1,1′-(2,2′-((3R,3′R,6R,6′R)-(((2S,2'S)-((hexane-1,6-diylbis(oxy))bis(methylene))bis(morpholine-2,4-diyl))bis(methylene))bis(3-methylpiperazine-6,1-diyl))bis(acetyl))bis(6-(4-fluorobenzyl)-3,3-dimethyl-1,2,3,4-tetrahydro-5H-pyrrolo[3,2-b]pyridin-5-one)]
[1]
  pIC50: 8.10 to 8.86
[2]
  EC50: 0.49 to 12.6 nM
[3]
  pIC50: 4.29 to 5.00
[4]
  pIC50: 4.29 to 5.00
[5]
  pIC50: 7.80 to 8.10
[6]
  pIC50: 7.80 to 8.10

## C[C@@H]1CN(CC(=O)N2CC(C)(C)c3[nH]c(=O)c(Cc4ccc(F)cc4)cc32)[C@@H](CN2CCO[C@H](C(=O)NCCCCCCCCCCNC(=O)[C@@H]3CN(C[C@H]4CN[C@H](C)CN4CC(=O)N4CC(C)(C)c5[nH]c(=O)c(Cc6ccc(F)cc6)cc54)CCO3)C2)CN1 [Example 120, (2S,2'S)-N,N′-(decane-1,10-diyl)bis(4-(((2R,5R)-1-(2-(6-(4-fluorobenzyl)-3,3-dimethyl-5-oxo-2,3,4,5-tetrahydro-1H-pyrrolo[3,2-b]pyridin-1-yl)-2-oxoethyl)-5-methylpiperazin-2-yl)methyl)morpholine-2-carboxamide)]
[1]
  pIC50: 7.80 to 8.10
  cIAP2 BIR3 vs BIR2 separation window: +++ (10,000>FS>1,000)
[2]
  EC50: 63.1 to 316 nM
[3]
  pIC50: 5.50 to 6.00
[4]
  pIC50: 5.50 to 6.00
[5]
  pIC50: 7.50 to 7.80
[6]
  pIC50: 7.80 to 8.10
  cIAP1 BIR3 vs BIR2 separation window: +++ (10,000>FS>1,000)

## C[C@@H]1CN(CC(=O)N2CC(C)(C)c3[nH]c(=O)c(Cc4ccc(F)cc4)cc32)[C@@H](CN2CCN(CCCCCCCCCCCCN3CCN(C[C@H]4CN[C@H](C)CN4CC(=O)N4CC(C)(C)c5[nH]c(=O)c(Cc6ccc(F)cc6)cc54)[C@H](C)C3)C[C@H]2C)CN1 [Example 26, 1,1′-(2,2′-((3R,3′R,6R,6′R)-(((2R,2′R)-dodecane-1,12-diylbis(2-methylpiperazine-4,1-diyl))bis(methylene))bis(3-methylpiperazine-6,1-diyl))bis(acetyl))bis(6-(4-fluorobenzyl)-3,3-dimethyl-1,2,3,4-tetrahydro-5H-pyrrolo[3,2-b]pyridin-5-one)]
[1]
  pIC50: 7.80 to 8.10
[2]
  EC50: 12.6 to 63.1 nM
[3]
  pIC50: 5.50 to 6.00
[4]
  pIC50: 5.50 to 6.00
[5]
  pIC50: 7.50 to 7.80
[6]
  pIC50: 6.30 to 7.50

## C[C@@H]1CN(CC(=O)N2CC(C)(C)c3[nH]c(=O)c(Cc4ccc(F)cc4)cc32)[C@@H](CN2CCO[C@H](COc3cc(C#N)cc(OC[C@@H]4CN(C[C@H]5CN[C@H](C)CN5CC(=O)N5CC(C)(C)c6[nH]c(=O)c(Cc7ccc(F)cc7)cc65)CCO4)c3)C2)CN1 [Example 76, 3,5-bis(((S)-4-(((2R,5R)-1-(2-(6-(4-fluorobenzyl)-3,3-dimethyl-5-oxo-2,3,4,5-tetrahydro-1H-pyrrolo[3,2-b]pyridin-1-yl)-2-oxoethyl)-5-methylpiperazin-2-yl)methyl)morpholin-2-yl)methoxy)benzonitrile]
[1]
  pIC50: 8.10 to 8.86
  cIAP2 BIR3 vs BIR2 separation window: +++ (10,000>FS>1,000)
[2]
  EC50: 0.49 to 12.6 nM
[3]
  pIC50: 5.00 to 5.50
[4]
  pIC50: 5.50 to 6.00
[5]
  pIC50: 7.50 to 7.80
[6]
  pIC50: 7.80 to 8.10
  cIAP1 BIR3 vs BIR2 separation window: +++ (10,000>FS>1,000)

## C[C@@H]1CN(CC(=O)N2CC(C)(C)c3[nH]c(=O)c(Cc4ccc(F)cc4)cc32)[C@@H](CN2CCO[C@H](COCCCCCOC[C@@H]3CN(C[C@H]4CN[C@H](C)CN4CC(=O)N4CC(C)(C)c5[nH]c(=O)c(Cc6ccc(F)cc6)cc54)CCO3)C2)CN1 [Example 82, 1,1′-(2,2′-((3R,3′R,6R,6′R)-(((2S,2'S)-((pentane-1,5-diylbis(oxy))bis(methylene))bis(morpholine-2,4-diyl))bis(methylene))bis(3-methylpiperazine-6,1-diyl))bis(acetyl))bis(6-(4-fluorobenzyl)-3,3-dimethyl-1,2,3,4-tetrahydro-5H-pyrrolo[3,2-b]pyridin-5-one)]
[1]
  pIC50: 7.50 to 7.80
  cIAP2 BIR3 vs BIR2 separation window: +++ (10,000>FS>1,000)
[2]
  EC50: 0.49 to 12.6 nM
[3]
  pIC50: 4.29 to 5.00
[4]
  pIC50: 5.50 to 6.00
[5]
  pIC50: 6.30 to 7.50
[6]
  pIC50: 7.50 to 7.80
  cIAP1 BIR3 vs BIR2 separation window: ++++ (FS>10,000)

## COc1cc(F)ccc1Cc1cnc2c(c1)N(C(=O)CN1C[C@@H](C)NC[C@@H]1CN1CCO[C@H](COc3cccc(OC[C@@H]4CN(C[C@H]5CN[C@H](C)CN5CC(=O)N5CC(C)(C)c6ncc(Cc7ccc(F)cc7OC)cc65)CCO4)c3)C1)CC2(C)C [Compound 151]
[1]
  pIC50: 7.80 to 8.10
  cIAP2 BIR3 vs BIR2 separation window: +++ (10,000>FS>1,000)
[2]
  EC50: 63.1 to 316 nM
[3]
  pIC50: 5.00 to 5.50
[4]
  pIC50: 5.00 to 5.50
[5]
  pIC50: 6.30 to 7.50
[6]
  pIC50: 7.50 to 7.80
  cIAP1 BIR3 vs BIR2 separation window: +++ (10,000>FS>1,000)

## C[C@@H]1CN(CC(=O)N2CC(C)(C)c3[nH]c(=O)c(Cc4ccc(F)cc4)cc32)[C@@H](CN2CCO[C@H](COCCOCCOC[C@@H]3CN(C[C@H]4CN[C@H](C)CN4CC(=O)N4CC(C)(C)c5[nH]c(=O)c(Cc6ccc(F)cc6)cc54)CCO3)C2)CN1 [Example 83, 1,1′-(2,2′-((3R,3′R,6R,6′R)-(((2S,2'S)-(((oxybis(ethane-2,1-diyl))bis(oxy))bis(methylene))bis(morpholine-2,4-diyl))bis(methylene))bis(3-methylpiperazine-6,1-diyl))bis(acetyl))bis(6-(4-fluorobenzyl)-3,3-dimethyl-1,2,3,4-tetrahydro-5H-pyrrolo[3,2-b]pyridin-5-one)]
[1]
  pIC50: 7.50 to 7.80
  cIAP2 BIR3 vs BIR2 separation window: +++ (10,000>FS>1,000)
[2]
  EC50: 12.6 to 63.1 nM
[3]
  pIC50: 5.00 to 5.50
[4]
  pIC50: 5.00 to 5.50
[5]
  pIC50: 7.50 to 7.80
[6]
  pIC50: 7.50 to 7.80
  cIAP1 BIR3 vs BIR2 separation window: +++ (10,000>FS>1,000)

## C[C@@H]1CN(CC(=O)N2CC(C)(C)c3[nH]c(=O)c(Cc4ccc(Cl)cc4C#N)cc32)[C@@H](CN2CCO[C@H](C(=O)NCc3ccc(CNC(=O)[C@@H]4CN(C[C@H]5CN[C@H](C)CN5CC(=O)N5CC(C)(C)c6[nH]c(=O)c(Cc7ccc(Cl)cc7C#N)cc65)CCO4)cc3)C2)CN1 [Compound 171, (2S,2′S)-N,N′-(1,4-phenylenebis(methylene)) bis(4-(((2R,5R)-1-(2-(6-(4-chloro-2-cyanobenzyl)-3,3-dimethyl-5-oxo-2,3,4,5-tetrahydro-1H-pyrrolo[3,2-b]pyridin-1-yl)-2-oxoethyl)-5-methylpiperazin-2-yl)methyl)morpholine-2-carboxamide)]
[1]
  pIC50: 8.10 to 8.86
  cIAP2 BIR3 vs BIR2 separation window: ++ (1,000>FS>100)
[2]
  EC50: 12.6 to 63.1 nM
[3]
  pIC50: 6.00 to 7.65
[4]
  pIC50: 6.00 to 7.65
[5]
  pIC50: 6.30 to 7.50
[6]
  pIC50: 8.10 to 8.86
  cIAP1 BIR3 vs BIR2 separation window: ++ (1,000>FS>100)

## C[C@@H]1CN(CC(=O)N2CC(C)(C)c3[nH]c(=O)c(Cc4ccc(F)cc4)cc32)[C@@H](CN2CCO[C@H](COc3cc(F)cc(OC[C@@H]4CN(C[C@H]5CN[C@H](C)CN5CC(=O)N5CC(C)(C)c6[nH]c(=O)c(Cc7ccc(F)cc7)cc65)CCO4)c3)C2)CN1 [Example 73, 1,1′-(2,2′-((3R,3′R,6R,6′R)-(((2S,2'S)-(((5-fluoro-1,3-phenylene)bis(oxy))bis(methylene))bis(morpholine-2,4-diyl))bis(methylene))bis(3-methylpiperazine-6,1-diyl))bis(acetyl))bis(6-(4-fluorobenzyl)-3,3-dimethyl-1,2,3,4-tetrahydro-5H-pyrrolo[3,2-b]pyridin-5-one)]
[1]
  pIC50: 8.10 to 8.86
  cIAP2 BIR3 vs BIR2 separation window: +++ (10,000>FS>1,000)
[2]
  EC50: 0.49 to 12.6 nM
[3]
  pIC50: 5.00 to 5.50
[4]
  pIC50: 5.00 to 5.50
[5]
  pIC50: 7.50 to 7.80
[6]
  pIC50: 7.80 to 8.10
  cIAP1 BIR3 vs BIR2 separation window: +++ (10,000>FS>1,000)
